From ChEMBL document CHEMBL5579798, “Discovery of novel oridonin sulfamide derivatives as potent NLRP3 inhibitors by a visible-light photocatalysis-enabled peripheral editing” (Bioorg Med Chem Lett, 2024)

test: Cytotoxicity against human THP-1 cells by CCK-8 method; assay type: toxicity, cell-based

| Structure (SMILES) | CC50 |
| --- | --- |
| CC1(C)CC[C@H](O)[C@]23CO[C@](O)([C@@H](O)[C@H]12)[C@]12C(=O)[C@@H](CCNS(=O)(=O)/C=C/c4ccccc4)[C@H](CC[C@@H]31)[C@H]2O | > 100 µM |
| C=C1C(=O)[C@]23[C@H](O)[C@H]1CC[C@H]2[C@@]12CO[C@]3(O)[C@@H](O)[C@@H]1C(C)(C)CC[C@@H]2O [ORIDONIN] | 19.8 µM |
| CC1(C)CC[C@H](O)[C@]23CO[C@](O)([C@@H](O)[C@H]12)[C@]12C(=O)[C@@H](CCNS(=O)(=O)c4ccccc4)[C@H](CC[C@@H]31)[C@H]2O | > 100 µM |
| CN(C)c1cccc2c(S(=O)(=O)NCC[C@@H]3C(=O)[C@]45[C@H](O)[C@H]3CC[C@H]4[C@@]34CO[C@]5(O)[C@@H](O)[C@@H]3C(C)(C)CC[C@@H]4O)cccc12 | 96.8 µM |
| Cn1ccc(S(=O)(=O)NCC[C@@H]2C(=O)[C@]34[C@H](O)[C@H]2CC[C@H]3[C@@]23CO[C@]4(O)[C@@H](O)[C@@H]2C(C)(C)CC[C@@H]3O)n1 | > 100 µM |
| COc1ccc(S(=O)(=O)NCC[C@@H]2C(=O)[C@]34[C@H](O)[C@H]2CC[C@H]3[C@@]23CO[C@]4(O)[C@@H](O)[C@@H]2C(C)(C)CC[C@@H]3O)cc1 | > 100 µM |
| CC1(C)CC[C@H](O)[C@]23CO[C@](O)([C@@H](O)[C@H]12)[C@]12C(=O)[C@@H](CCNS(=O)(=O)c4ccc(F)cc4)[C@H](CC[C@@H]31)[C@H]2O | > 100 µM |
| CC1(C)CC[C@H](O)[C@]23CO[C@](O)([C@@H](O)[C@H]12)[C@]12C(=O)[C@@H](CCNS(=O)(=O)c4ccc(C#N)cc4)[C@H](CC[C@@H]31)[C@H]2O | > 100 µM |
| CC1(C)CC[C@H](O)[C@]23CO[C@](O)([C@@H](O)[C@H]12)[C@]12C(=O)[C@@H](CCN)[C@H](CC[C@@H]31)[C@H]2O | > 100 µM |
| CC1(C)CC[C@H](O)[C@]23CO[C@](O)([C@@H](O)[C@H]12)[C@]12C(=O)[C@@H](CCNS(=O)(=O)c4cccnc4)[C@H](CC[C@@H]31)[C@H]2O | > 100 µM |
| CC1(C)CC[C@H](O)[C@]23CO[C@](O)([C@@H](O)[C@H]12)[C@]12C(=O)[C@@H](CCNS(=O)(=O)c4ccsc4)[C@H](CC[C@@H]31)[C@H]2O | > 100 µM |
| CC(C)(C)OC(=O)NCC[C@@H]1C(=O)[C@]23[C@H](O)[C@H]1CC[C@H]2[C@@]12CO[C@]3(O)[C@@H](O)[C@@H]1C(C)(C)CC[C@@H]2O | > 100 µM |
| CC1(C)CC[C@H](O)[C@]23CO[C@](O)([C@@H](O)[C@H]12)[C@]12C(=O)[C@@H](CCNS(=O)(=O)c4ccc(C(F)(F)F)cc4)[C@H](CC[C@@H]31)[C@H]2O | > 100 µM |
